Patent US9958439B2, “Carbohydrate detection” (RICHTER LIFE SCIENCE DEVELOPMENT AB, priority 2012, dated 2018)
Where two headings read alike, the source gives them in different places.

How the values were obtained:
[1] = for RFU change (Correlation analysis) / RFU change (Signal deviation with increasing [Carbohydrate]) / λmax change: 3 μM probe; for RFU change (Correlation analysis): probe-specific excitation λ, emission 545 nm; for RFU change (Signal deviation with increasing [Carbohydrate]) / λmax change: spectral analysis, Excitation 300-500, Emission 545; for carbohydrate can be detected and/or differentiated by the LCO: conclusion from change in signal magnitude and/or shift in λmax; for Gradient Parameters (gradient of regression line) / Linear relationship / Quality of Gradient: linear regression
Description: (§1) The excitation spectrum of the probe was analyzed for wavelengths 300-500 nm with emission read at 545 nm.
(§2) 3 μM of each probe was applied to serial two fold dilutions of the insoluble carbohydrate. Respective probes were excited at wavelengths unique to each probe (specified in figure), and emission was read at 545 nm.
(§3) Serial dilutions of carbohydrate suspensions were prepared in dH2O. Concentrations ranging from 10 to 0.039 mg/ml was used for β-1,3-glucan, cellulose and chitin, whereas 5 to 0.019 mg/ml was used for sodium alginate, glucose, amylose, glycogen, cellulobiose, heparin, chondroitin sulfate A. 3 μM of each LCO probe was added to 1 ml aliquots of each concentration of carbohydrate, after which 100 μl was dispensed in triplicates into 96 well plates. Excitation spectra were collected by exciting the sample from 300 to 500 nm and detecting emission at 545 nm. Detection of carbohydrate is concluded when there is a reproducible change in λmax and/or RFU intensity with reference to the negative control. Data from three concentrations, as well as the negative control are shown for each carbohydrate as specified in respective figure.
(§4) The excitation wavelength (emission detected at 545 nm) selected for each LCO is either (1) the λmax, or (2) the excitation wavelength which suffers the lowest background. A linear regression analysis is performed to determine the relationship between the carbohydrate concentration and RFU.

[2] = for RFU change (Correlation analysis) / RFU change (Signal deviation with increasing [Carbohydrate]) / λmax change: 3 μM probe; for RFU change (Correlation analysis): probe-specific excitation λ, emission 545 nm; for RFU change (Signal deviation with increasing [Carbohydrate]) / λmax change: spectral analysis, Excitation 300-500, Emission 545
Description: 3 μM of each probe was applied to serial two fold dilutions of the carbohydrate of which the concentration shown here are 5 mg/ml (_.), 2.5 mg/ml (. . . ), 1.25 mg/ml (__) and 0 mg/ml (_). The excitation spectrum of the probe was analyzed for wavelengths 300-500 nm with emission read at 545 nm.
(§5) 3 μM of each probe was applied to serial two fold dilutions of the carbohydrate. Respective probes were excited at wavelengths unique to each probe (specified in figure), and emission was read at 545 nm.
as §3, §4

[3] = Description: (§6) 3 μM of each probe was applied to serial two fold dilutions of the carbohydrate of which the concentration shown here are 5 mg/ml (_.), 2.5 mg/ml (. . . ) 1.25 mg/ml (__) and 0 mg/ml (_). The excitation spectrum of the probe was analyzed for wavelengths 300-500 nm with emission read at 545 nm.
3 μM of each probe was applied to serial two fold dilutions of the carbohydrate. Respective probes were excited at wavelengths unique to each probe (specified in figure), and emission was read at 545 nm. […] The mean increase in signal (_) with [Glucose] and the fitted regression line (__) is shown.
as §3, §4

[4] = remark: listed apart in the source
Description: as §1, §5, §3, §4

[5] = remark: listed apart in the source
Description: 3 μM of each probe was applied to serial two fold dilutions of the insoluble carbohydrate of which the concentration shown here are 5 mg/ml (_.), 2.5 mg/ml (. . . ), 1.25 mg/ml (__) and 0 mg/ml (_). The excitation spectrum of the probe was analyzed for wavelengths 300-500 nm with emission read at 545 nm.
as §2, §3, §4

[6] = for RFU change (Correlation analysis): probe-specific excitation λ, emission 545 nm
Description: as §6, §5, §3, §4

[7] = β-1,3-glucan concentration vs RFU
[8] = glycogen concentration vs RFU, linear regression
[9] = heparin concentration vs RFU, linear regression
[10] = glucose concentration vs RFU, linear regression
[11] = Chondroitin Sulfate A 5-0.019 mg/ml, 3 μM probe, spectral analysis, Excitation 300-500, Emission 545
[12] = Chondroitin Sulfate A concentration vs RFU, linear regression
[13] = Sodium alginate 5-0.019 mg/ml, 3 μM probe, spectral analysis, Excitation 300-500, Emission 545
[14] = sodium alginate concentration vs RFU, linear regression
[15] = Cellulobiose 5-0.019 mg/ml, 3 μM probe, spectral analysis, Excitation 300-500, Emission 545
[16] = amylose concentration vs RFU, linear regression
[17] = cellulobiose concentration vs RFU, linear regression

Structure (SMILES): Cl.Cl.NCCc1cc(-c2cccs2)sc1-c1ccc(-c2sc(-c3cccs3)cc2CCN)s1 [pHTEA, penta Hydrogen Thiophene Ethanol Amine]
- RFU change (Correlation analysis) ([1]; Cellulose 10-[…]): Increase
- RFU change (Signal deviation with increasing [Carbohydrate]) ([1]; Cellulose 10-[…]): Increase
- λmax change ([1]; Cellulose 10-[…]): Redshift
- carbohydrate can be detected and/or differentiated by the LCO ([1]; Cellulose): can be detected and/or differentiated
- RFU change (Correlation analysis) ([1]; Chitin 10-[…]): Decreases
- RFU change (Signal deviation with increasing [Carbohydrate]) ([1]; Chitin 10-[…]): Decrease
- λmax change ([1]; Chitin 10-[…]): Redshift
- carbohydrate can be detected and/or differentiated by the LCO ([1]; Chitin): can be detected and/or differentiated
- Gradient Parameters (gradient of regression line) ([1]; cellulose concentration vs RFU): 6001 ± 1187
- Linear relationship ([1]; cellulose concentration vs RFU): Significant
- Quality of Gradient ([1]; cellulose concentration vs RFU): Positive
- Gradient Parameters (gradient of regression line) ([1]; chitin concentration vs RFU): −9030 ± 110.1
- Linear relationship ([1]; chitin concentration vs RFU): Significant
- Quality of Gradient ([1]; chitin concentration vs RFU): Negative
- Sensitivity ([1]; to cellulose): Yes
- Sensitivity ([1]; to chitin): Yes
- Sensitivity ([1]; to β-1,3-glucan): Yes
- carbohydrate can be detected and/or differentiated by the LCO ([1]; β-1,3-Glucan): can be detected and/or differentiated
- RFU change (Correlation analysis) ([1]; β-1,3-glucan 10-[…]): Decrease
- RFU change (Signal deviation with increasing [Carbohydrate]) ([1]; β-1,3-glucan 10-[…]): Decrease
- λmax change ([1]; β-1,3-glucan 10-[…]): Redshift
- Gradient Parameters (gradient of regression line) [1, 7]: −664.6 ± 206.2
- Quality of Gradient [1, 7]: Negative
- RFU change (Correlation analysis) ([2]; Glycogen 5-0.019 mg/ml): Decreases
- RFU change (Signal deviation with increasing [Carbohydrate]) ([2]; Glycogen 5-0.019 mg/ml): Decreases
- λmax change ([2]; Glycogen 5-0.019 mg/ml): Redshift
- carbohydrate can be detected and/or differentiated by the LCO ([2]; Glycogen, conclusion from change in signal magnitude and/or shift in λmax): can be detected and/or differentiated
- RFU change (Correlation analysis) ([2]; Heparin 5-0.019 mg/ml): Unclear
- RFU change (Signal deviation with increasing [Carbohydrate]) ([2]; Heparin 5-0.019 mg/ml): Decreases
- λmax change ([2]; Heparin 5-0.019 mg/ml): Redshift
- Gradient Parameters (gradient of regression line) [2, 8]: −451 ± 328
- Quality of Gradient [2, 8]: Negative
- Gradient Parameters (gradient of regression line) [2, 9]: −109.3 ± 248
- Linear relationship [2, 9]: Not Significant
- Quality of Gradient [2, 9]: Horizontal
- Sensitivity ([2]; to glycogen): Yes
- Sensitivity ([2]; to heparin): No
- RFU change (Correlation analysis) ([3]; Glucose 5-0.019 mg/ml, 3 μM probe, probe-specific excitation λ, emission 545 nm): Unclear
- RFU change (Signal deviation with increasing [Carbohydrate]) ([3]; Glucose 5-0.019 mg/ml, 3 μM probe, spectral analysis, Excitation 300-500, Emission 545): Increases
- Gradient Parameters (gradient of regression line) [3, 10]: −67.4 ± 37.2
- Quality of Gradient [3, 10]: Horizontal
- Sensitivity ([3]; to glucose): No
- RFU change (Correlation analysis) ([4]; Chondroitin Sulfate A 5-0.019 mg/ml, 3 μM probe, probe-specific excitation λ, emission 545 nm): Increases
- RFU change (Signal deviation with increasing [Carbohydrate]) [4, 11]: Increases
- λmax change [4, 11]: Redshift
- Gradient Parameters (gradient of regression line) [4, 12]: 5989 ± 727
- Linear relationship [4, 12]: Significant
- Quality of Gradient [4, 12]: Positive
- carbohydrate can be detected and/or differentiated by the LCO ([4]; Chondroitin sulfate A, conclusion from change in signal magnitude and/or shift in λmax): can be detected and/or differentiated
- Sensitivity ([4]; to Chondroitin Sulfate A): Yes
- RFU change (Correlation analysis) ([5]; Sodium alginate 5-0.019 mg/ml, 3 μM probe, probe-specific excitation λ, emission 545 nm): Increases
- RFU change (Signal deviation with increasing [Carbohydrate]) [5, 13]: Increases
- λmax change [5, 13]: Redshift
- carbohydrate can be detected and/or differentiated by the LCO ([5]; Sodium alginate, conclusion from change in signal magnitude and/or shift in λmax): can be detected and/or differentiated
- Gradient Parameters (gradient of regression line) [5, 14]: 832.4 ± 174.5
- Linear relationship [5, 14]: Significant
- Quality of Gradient [5, 14]: Positive
- Sensitivity ([5]; to sodium alginate): Yes
- RFU change (Correlation analysis) ([6]; Amylose 5-0.019 mg/ml, 3 μM probe): Decreases
- RFU change (Signal deviation with increasing [Carbohydrate]) ([6]; Amylose 5-0.019 mg/ml, 3 μM probe, spectral analysis, Excitation 300-500, Emission 545): Decreases
- carbohydrate can be detected and/or differentiated by the LCO ([6]; Amylose, conclusion from change in signal magnitude and/or shift in λmax): can be detected and/or differentiated
- RFU change (Correlation analysis) ([6]; Cellulobiose 5-0.019 mg/ml, 3 μM probe): Unclear
- RFU change (Signal deviation with increasing [Carbohydrate]) [6, 15]: Unclear
- λmax change [6, 15]: No change
- Gradient Parameters (gradient of regression line) [6, 16]: −6680 ± 1421
- Linear relationship [6, 16]: Significant
- Quality of Gradient [6, 16]: Negative
- Gradient Parameters (gradient of regression line) [6, 17]: 39.5 ± 66.5
- Quality of Gradient [6, 17]: Horizontal
- Sensitivity ([6]; to amylose): Yes
- Sensitivity ([6]; to cellulobiose): No
